# In ChEMBL document CHEMBL5715952 (Oncotarget, 2015):
# How the values were obtained:
# [1] = Inhibition of PI3K/mTOR/ATM in human RPMI-8226 cells assessed as reduction of cell growth incubated for 72 hrs by CellTiter 96 aqueous one solution cell proliferation assay; assay type: cell-based; conditions: RPMI-8226, 72 h
# [2] = Inhibition of PI3K/mTOR/ATM in bortezomib Resistant human RPMI-8226 cells assessed as reduction of cell growth incubated for 72 hrs by CellTiter 96 aqueous one solution cell proliferation assay; assay type: cell-based; conditions: Bortezomib-resistant RPMI-8226, 72 h
# [3] = Inhibition of PI3K/mTOR/ATM in Melphalan Resistant human RPMI-8226 cells assessed as reduction of cell growth incubated for 72 hrs by CellTiter 96 aqueous one solution cell proliferation assay; assay type: cell-based; conditions: Melphalan-resistant RPMI-8226 cell
# [4] = Inhibition of PI3K/mTOR/ATM in human ANBL-6 cells assessed as reduction of cell growth incubated for 72 hrs by CellTiter 96 aqueous one solution cell proliferation assay; assay type: cell-based; conditions: ANBL-6, 72 h
# [5] = Inhibition of PI3K/mTOR/ATM in human bortezomib-resistant ANBL6 cells assessed as reduction of cell growth incubated for 72 hrs by CellTiter 96 aqueous one solution cell proliferation assay; assay type: cell-based
# [6] = Inhibition of PI3K/mTOR/ATM in human U-266 cells assessed as reduction of cell growth incubated for 72 hrs by CellTiter 96 aqueous one solution cell proliferation assay; assay type: cell-based; conditions: U-266, 72 h
# [7] = Ratio of IC50 for inhibition of PI3K/mTOR/ATM in human RPMI-8226 cells assessed as reduction of cell viability to IC50 for inhibition of PI3K/mTOR/ATM in human melphalan-resistant RPMI-8226 cells assessed as reduction of cell viability; conditions: time 72 hrs; condition multiple myeloma
# [8] = Ratio of IC50 for inhibition of PI3K/mTOR/ATM in human RPMI-8226 cells assessed as reduction of cell viability to IC50 for inhibition of PI3K/mTOR/ATM in human RPMI-8226/BR resistant cells assessed as reduction of cell viability; conditions: condition multiple myeloma
# [9] = Ratio of IC50 for inhibition of PI3K/mTOR/ATM in human ANBL6 cells assessed as reduction of cell viability to IC50 for inhibition of PI3K/mTOR/ATM in human ANBL6/BR resistant cells assessed as reduction of cell viability; conditions: condition multiple myeloma
# [10] = Inhibition of VEGFR1/PDGFR/cKIT/RET in human RPMI-8226 cells assessed as reduction of cell growth incubated for 72 hrs by CellTiter 96 aqueous one solution cell proliferation assay; assay type: cell-based; conditions: RPMI-8226, 72 h
# [11] = Inhibition of VEGFR2/PDGFR/cKIT/RET in human RPMI-8226 cells assessed as reduction of cell growth incubated for 72 hrs by CellTiter 96 aqueous one solution cell proliferation assay; assay type: cell-based; conditions: RPMI-8226, 72 h
# [12] = Inhibition of VEGFR3/PDGFR/cKIT/RET in human RPMI-8226 cells assessed as reduction of cell growth incubated for 72 hrs by CellTiter 96 aqueous one solution cell proliferation assay; assay type: cell-based; conditions: RPMI-8226, 72 h
# [13] = Inhibition of VEGFR1/PDGFR/cKIT/RET in bortezomib Resistant human RPMI-8226 cells assessed as reduction of cell growth incubated for 72 hrs by CellTiter 96 aqueous one solution cell proliferation assay; assay type: cell-based; conditions: Bortezomib-resistant RPMI-8226, 72 h
# [14] = Inhibition of VEGFR2/PDGFR/cKIT/RET in bortezomib Resistant human RPMI-8226 cells assessed as reduction of cell growth incubated for 72 hrs by CellTiter 96 aqueous one solution cell proliferation assay; assay type: cell-based; conditions: Bortezomib-resistant RPMI-8226, 72 h
# [15] = Inhibition of VEGFR3/PDGFR/cKIT/RET in bortezomib Resistant human RPMI-8226 cells assessed as reduction of cell growth incubated for 72 hrs by CellTiter 96 aqueous one solution cell proliferation assay; assay type: cell-based; conditions: Bortezomib-resistant RPMI-8226, 72 h
# [16] = Inhibition of VEGFR1/PDGFR/cKIT/RET in Melphalan Resistant human RPMI-8226 cells assessed as reduction of cell growth incubated for 72 hrs by CellTiter 96 aqueous one solution cell proliferation assay; assay type: cell-based; conditions: Melphalan-resistant RPMI-8226 cell
# [17] = Inhibition of VEGFR2/PDGFR/cKIT/RET in Melphalan Resistant human RPMI-8226 cells assessed as reduction of cell growth incubated for 72 hrs by CellTiter 96 aqueous one solution cell proliferation assay; assay type: cell-based; conditions: Melphalan-resistant RPMI-8226 cell
# [18] = Inhibition of VEGFR3/PDGFR/cKIT/RET in Melphalan Resistant human RPMI-8226 cells assessed as reduction of cell growth incubated for 72 hrs by CellTiter 96 aqueous one solution cell proliferation assay; assay type: cell-based; conditions: Melphalan-resistant RPMI-8226 cell
# [19] = Inhibition of VEGFR1/PDGFR/cKIT/RET in human ANBL-6 cells assessed as reduction of cell growth incubated for 72 hrs by CellTiter 96 aqueous one solution cell proliferation assay; assay type: cell-based; conditions: ANBL-6, 72 h
# [20] = Inhibition of VEGFR2/PDGFR/cKIT/RET in human ANBL-6 cells assessed as reduction of cell growth incubated for 72 hrs by CellTiter 96 aqueous one solution cell proliferation assay; assay type: cell-based; conditions: ANBL-6, 72 h
# [21] = Inhibition of VEGFR3/PDGFR/cKIT/RET in human ANBL-6 cells assessed as reduction of cell growth incubated for 72 hrs by CellTiter 96 aqueous one solution cell proliferation assay; assay type: cell-based; conditions: ANBL-6, 72 h
# [22] = Inhibition of VEGFR1/PDGFR/cKIT/RET in human bortezomib-resistant ANBL6 cells assessed as reduction of cell growth incubated for 72 hrs by CellTiter 96 aqueous one solution cell proliferation assay; assay type: cell-based
# [23] = Inhibition of VEGFR2/PDGFR/cKIT/RET in human bortezomib-resistant ANBL6 cells assessed as reduction of cell growth incubated for 72 hrs by CellTiter 96 aqueous one solution cell proliferation assay; assay type: cell-based
# [24] = Inhibition of VEGFR3/PDGFR/cKIT/RET in human bortezomib-resistant ANBL6 cells assessed as reduction of cell growth incubated for 72 hrs by CellTiter 96 aqueous one solution cell proliferation assay; assay type: cell-based
# [25] = Inhibition of VEGFR1/PDGFR/cKIT/RET in human U-266 cells assessed as reduction of cell growth incubated for 72 hrs by CellTiter 96 aqueous one solution cell proliferation assay; assay type: cell-based; conditions: U-266, 72 h
# [26] = Inhibition of VEGFR2/PDGFR/cKIT/RET in human U-266 cells assessed as reduction of cell growth incubated for 72 hrs by CellTiter 96 aqueous one solution cell proliferation assay; assay type: cell-based; conditions: U-266, 72 h
# [27] = Inhibition of VEGFR3/PDGFR/cKIT/RET in human U-266 cells assessed as reduction of cell growth incubated for 72 hrs by CellTiter 96 aqueous one solution cell proliferation assay; assay type: cell-based; conditions: U-266, 72 h
# [28] = Ratio of IC50 for inhibition of VEGFR1/PDGFR/cKIT/RET in human RPMI-8226 cells assessed as reduction of cell viability to IC50 for inhibition of VEGFR1/PDGFR/cKIT/RET in human melphalan-resistant RPMI-8226 cells assessed as reduction of cell viability; conditions: time 72 hrs; condition multiple myeloma
# [29] = Ratio of IC50 for inhibition of VEGFR2/PDGFR/cKIT/RET in human RPMI-8226 cells assessed as reduction of cell viability to IC50 for inhibition of VEGFR2/PDGFR/cKIT/RET in human melphalan-resistant RPMI-8226 cells assessed as reduction of cell viability; conditions: time 72 hrs; condition multiple myeloma
# [30] = Ratio of IC50 for inhibition of VEGFR3/PDGFR/cKIT/RET in human RPMI-8226 cells assessed as reduction of cell viability to IC50 for inhibition of VEGFR3/PDGFR/cKIT/RET in human melphalan-resistant RPMI-8226 cells assessed as reduction of cell viability; conditions: time 72 hrs; condition multiple myeloma
# [31] = Ratio of IC50 for inhibition of VEGFR1/PDGFR/cKIT/RET in human RPMI-8226 cells assessed as reduction of cell viability to IC50 for inhibition of VEGFR1/PDGFR/cKIT/RET in human RPMI-8226/BR resistant cells assessed as reduction of cell viability; conditions: condition multiple myeloma
# [32] = Ratio of IC50 for inhibition of VEGFR2/PDGFR/cKIT/RET in human RPMI-8226 cells assessed as reduction of cell viability to IC50 for inhibition of VEGFR2/PDGFR/cKIT/RET in human RPMI-8226/BR resistant cells assessed as reduction of cell viability; conditions: condition multiple myeloma
# [33] = Ratio of IC50 for inhibition of VEGFR3/PDGFR/cKIT/RET in human RPMI-8226 cells assessed as reduction of cell viability to IC50 for inhibition of VEGFR3/PDGFR/cKIT/RET in human RPMI-8226/BR resistant cells assessed as reduction of cell viability; conditions: condition multiple myeloma
# [34] = Ratio of IC50 for inhibition of VEGFR1/PDGFR/cKIT/RET in human ANBL6 cells assessed as reduction of cell viability to IC50 for inhibition of VEGFR1/PDGFR/cKIT/RET in human ANBL6/BR resistant cells assessed as reduction of cell viability; conditions: condition multiple myeloma
# [35] = Ratio of IC50 for inhibition of VEGFR2/PDGFR/cKIT/RET in human ANBL6 cells assessed as reduction of cell viability to IC50 for inhibition of VEGFR2/PDGFR/cKIT/RET in human ANBL6/BR resistant cells assessed as reduction of cell viability; conditions: condition multiple myeloma
# [36] = Ratio of IC50 for inhibition of VEGFR3/PDGFR/cKIT/RET in human ANBL6 cells assessed as reduction of cell viability to IC50 for inhibition of VEGFR3/PDGFR/cKIT/RET in human ANBL6/BR resistant cells assessed as reduction of cell viability; conditions: condition multiple myeloma
structure (smiles),measurement,setting,value
O=c1cc(-c2cccc3c2Sc2ccccc2S3)oc(N2CCOCC2)c1 [KU-55933],IC50,[1],10 µM
same,IC50,[2],10 µM
same,IC50,[3],10 µM
same,IC50,[4],10 µM
same,IC50,[5],10 µM
same,IC50,[6],10 µM
same,Ratio IC50,[7],1
same,Ratio IC50,[8],1
same,Ratio IC50,[9],1
CC1(C)CNc2cc(NC(=O)c3cccnc3NCc3ccncc3)ccc21 [MOTESANIB],IC50,[10],10 µM
same,IC50,[11],10 µM
same,IC50,[12],10 µM
same,IC50,[13],10 µM
same,IC50,[14],10 µM
same,IC50,[15],10 µM
same,IC50,[16],10 µM
same,IC50,[17],10 µM
same,IC50,[18],10 µM
same,IC50,[19],10 µM
same,IC50,[20],10 µM
same,IC50,[21],10 µM
same,IC50,[22],10 µM
same,IC50,[23],10 µM
same,IC50,[24],10 µM
same,IC50,[25],10 µM
same,IC50,[26],10 µM
same,IC50,[27],10 µM
same,Ratio IC50,[28],1
same,Ratio IC50,[29],1
same,Ratio IC50,[30],1
same,Ratio IC50,[31],1
same,Ratio IC50,[32],1
same,Ratio IC50,[33],1
same,Ratio IC50,[34],1
same,Ratio IC50,[35],1
same,Ratio IC50,[36],1
